Measurements reported in patent publication US12692254B2, “Benzimidazole inhibitors of PAD enzymes” (BRISTOL-MYERS SQUIBB COMPANY, priority 2018, dated 2026).

Biological target: human PAD4 (hPAD4) (Homo sapiens, UniProt Q9UM07)
Experiment: RFMS human PAD4 functional assay (rapid-fire mass spectrum)
Type: biochemical
Settings: 5 nM hPAD4 enzyme, 250 μM BAEE, 50 μM Calcium; 30 min preincubation, 90 min reaction at 37° C.
Protocol: Compounds of the present invention were assayed as inhibitors of PAD4 using the assay protocol described below.
RFMS tinman PAD4 Functional Assay:
Compounds were solubilized in 100% DMSO to achieve a 10 mM compound concentration. Compound stock solutions were stored at RT. A series of dilutions were prepared in DMSO and mixed 8 times with 20 μl, mixing volume. Final top concentration of compound in the assay is 50 μM. […] 1-90 min enzyme/substrate reaction, 30 min reaction with phenyl glyoxal at 37° C. • Stop solution: 40 μl 5% TCA in ACN
0.13 μL of compound solution was added to 13 μL of 10 nM PAD4 in assay buffer. After 30 min 13 μl of 500 μM of BAEE was added in 25 mM hepes, pH 7.5, 5 mM NaCl, 1 mM DTT, 0.2 mg/ml BS A, 0.01% CHAPS, 50 μM Calcium, 5 μM TPEN was added and the reaction incubated for 90 min at 37° C. The enzymatic reaction was quenched by addition of 15 μl of 6.1N TCA, 100% Final Concentration is 20%, 35 μl of 8.5 mM phenyl glyoxal (final concentration 4 mM) is then added and the reaction is incubated for 30 min at 37° C.
After 30 minutes the plates are spun down to remove all precipitate. The enzyme reaction was quenched with an equal volume of methanol containing internal standard (modified citrulline). Samples were loaded onto the Rapid Fire RF300 system (Agilent) wherein they were first sipped for 1000 ms and then directly loaded to a C18 separations cartridge using a mixture of acetonitrile containing 0.01% formic acid for 3000 ms desalting. The flow rate of the mobile phase was 1.5 ml/min.
The dwell time for each transition was set at 200 ms, and the ESI voltage was used at 5500 with a source temperature of 400° C. Extracted ion peaks for each transition were integrated using the Rapid Fire Integrator software. Peak area of analyte was normalized with internal standard).

human PAD4 (hPAD4), sequence (Q9UM07 whole entry): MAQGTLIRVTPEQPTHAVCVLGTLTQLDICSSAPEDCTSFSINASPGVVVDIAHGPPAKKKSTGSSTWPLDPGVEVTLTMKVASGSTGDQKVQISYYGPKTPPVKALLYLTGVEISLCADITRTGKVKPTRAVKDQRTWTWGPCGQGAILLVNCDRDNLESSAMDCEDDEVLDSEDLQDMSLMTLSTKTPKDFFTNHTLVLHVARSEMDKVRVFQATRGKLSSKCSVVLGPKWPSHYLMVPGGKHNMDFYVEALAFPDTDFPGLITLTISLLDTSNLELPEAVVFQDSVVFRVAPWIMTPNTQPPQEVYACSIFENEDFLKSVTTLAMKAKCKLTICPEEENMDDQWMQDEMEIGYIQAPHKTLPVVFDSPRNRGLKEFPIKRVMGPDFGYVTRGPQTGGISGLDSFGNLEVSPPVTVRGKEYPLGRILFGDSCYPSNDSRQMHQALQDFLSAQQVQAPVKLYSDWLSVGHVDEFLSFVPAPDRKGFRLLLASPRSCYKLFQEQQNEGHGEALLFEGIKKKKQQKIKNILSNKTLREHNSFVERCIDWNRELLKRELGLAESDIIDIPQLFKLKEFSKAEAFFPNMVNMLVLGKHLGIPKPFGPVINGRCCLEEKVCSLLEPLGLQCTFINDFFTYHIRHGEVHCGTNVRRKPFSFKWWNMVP

Question: Which IC50 does the source give for `COc1nccc(N2CC(Cn3c(-c4cc5cccnc5n4CC4CC4)nc4cc(C(=O)N5C[C@H]6CC[C@@H]5[C@@H]6N)cc(OC)c43)C2)n1` [Example 20, (1R,4R,7R)-2-{2-[1-(cyclopropylmethyl)-1H-pyrrolo[2,3-b]pyridin-2-yl]-7-methoxy-1-{[1-(2-methoxypyrimidin-4-yl)azetidin-3-yl]methyl}-1H-1,3-benzodiazole-5-carbonyl}-2-azabicyclo[2.2.1]heptan-7-amine] here?
Answer: 57 nM

Question: `COc1cc(C(=O)N2C[C@H]3CC[C@@H]2[C@@H]3N)cc2nc(-c3cc4cccnc4n3CC3CC3)n(CC3CN(c4cccc(C#N)n4)C3)c12` [Example 21, 6-[3-({5-[(1R,4R,7R)-7-amino-2-azabicyclo[2.2.1]heptane-2-carbonyl]-2-[1-(cyclopropylmethyl)-1H-pyrrolo[2,3-b]pyridin-2-yl]-7-methoxy-1H-1,3-benzodiazol-1-yl}methyl)azetidin-1-yl]pyridine-2-carbonitrile] was tested. Which IC50 did it give?
Answer: 57 nM

Question: Which IC50 does the source give for `COc1cc(C(=O)N2C[C@H]3CC[C@@H]2[C@@H]3N)cc2nc(-c3cc4ccccc4n3C)n(CC3CN(c4cncc(C#N)c4)C3)c12` [Example 22, 5-[3-({5-[(1R,4R,7R)-7-amino-2-azabicyclo[2.2.1]heptane-2-carbonyl]-7-methoxy-2-(1-methyl-1H-indol-2-yl)-1H-1,3-benzodiazol-1-yl}methyl)azetidin-1-yl]pyridine-3-carbonitrile] here?
Answer: 60 nM

Question: For `COc1cc(C(=O)N2C[C@H]3CC[C@@H]2[C@@H]3N)cc2nc(-c3cc4ccc(Cl)cc4n3CC3CC3)n(CC3CN(c4cncc(C)c4)C3)c12` [Example 23, (1R,4R,7R)-2-{2-[6-chloro-1-(cyclopropylmethyl)-1H-indol-2-yl]-7-methoxy-1-{[1-(5-methylpyridin-3-yl)azetidin-3-yl]methyl}-1H-1,3-benzodiazole-5-carbonyl}-2-azabicyclo[2.2.1]heptan-7-amine], which IC50 is on record?
Answer: 62 nM

Question: For `COc1ccc2cc(-c3nc4cc(C(=O)N5C[C@H]6CC[C@@H]5[C@@H]6N)cc(OC)c4n3CC3CN(c4ncncc4C#N)C3)n(CC3CC3)c2n1` [Example 24, 4-[3-({5-[(1R,4R,7R)-7-amino-2-azabicyclo[2.2.1]heptane-2-carbonyl]-2-[1-(cyclopropylmethyl)-6-methoxy-1H-pyrrolo[2,3-b]pyridin-2-yl]-7-methoxy-1H-1,3-benzodiazol-1-yl}methyl)azetidin-1-yl]pyrimidine-5-carbonitrile], which IC50 is on record?
Answer: 68 nM

Question: With `COc1cc(C(=O)N2C[C@H]3CC[C@@H]2[C@@H]3N)cc2nc(-c3cc4cccnc4n3CC3CC3)n(CC3CN(c4ccc(C#N)cc4)C3)c12` [Example 25, 4-[3-({5-[(1R,4R,7R)-7-amino-2-azabicyclo[2.2.1]heptane-2-carbonyl]-2-[1-(cyclopropylmethyl)-1H-pyrrolo[2,3-b]pyridin-2-yl]-7-methoxy-1H-1,3-benzodiazol-1-yl}methyl)azetidin-1-yl]benzonitrile] as the molecule, how does the IC50 read?
Answer: 72 nM

Question: `COc1cc(C(=O)N2C[C@H]3CC[C@@H]2[C@@H]3N)cc2nc(-c3cc4cccnc4n3C)n(CC3CN(c4ccnc(C#N)n4)C3)c12` [Example 26, 4-[3-({5-[(1R,4R,7R)-7-amino-2-azabicyclo[2.2.1]heptane-2-carbonyl]-7-methoxy-2-{1-methyl-1H-pyrrolo[2,3-b]pyridin-2-yl}-1H-1,3-benzodiazol-1-yl}methyl)azetidin-1-yl]pyrimidine-2-carbonitrile] was tested. Which IC50 did it give?
Answer: 72 nM

Question: For `COc1cc(C(=O)N2C[C@H]3CC[C@@H]2[C@@H]3N)cc2nc(-c3cc4cccnc4n3CC3CC3)n(CC3CN(c4cncnc4)C3)c12` [Example 27, (1R,4R,7R)-2-{2-[1-(cyclopropylmethyl)-1H-pyrrolo[2,3-b]pyridin-2-yl]-7-methoxy-1-{[1-(pyrimidin-5-yl)azetidin-3-yl]methyl}-1H-1,3-benzodiazole-5-carbonyl}-2-azabicyclo[2.2.1]heptan-7-amine], which IC50 is on record?
Answer: 72 nM

Question: Which IC50 does the source give for `COc1cc(C(=O)N2C[C@H]3CC[C@@H]2[C@@H]3N)cc2nc(-c3cc4cccnc4n3CC3CC3)n(CC3CN(c4ncc(C#N)cc4Br)C3)c12` [Example 29, 6-[3-({5-[(1R,4R,7R)-7-amino-2-azabicyclo[2.2.1]heptane-2-carbonyl]-2-[1-(cyclopropylmethyl)-1H-pyrrolo[2,3-b]pyridin-2-yl]-7-methoxy-1H-1,3-benzodiazol-1-yl}methyl)azetidin-1-yl]-5-bromopyridine-3-carbonitrile] here?
Answer: 78 nM

Question: Which IC50 does the source give for `COc1cc(C(=O)N2C[C@H]3CC[C@@H]2[C@@H]3N)cc2nc(-c3cc4cccnc4n3CC3CC3)n(CC3CN(c4ncccn4)C3)c12` [Example 30, (1R,4R,7R)-2-{2-[1-(cyclopropylmethyl)-1H-pyrrolo[2,3-b]pyridin-2-yl]-7-methoxy-1-{[1-(pyrimidin-2-yl)azetidin-3-yl]methyl}-1H-1,3-benzodiazole-5-carbonyl}-2-azabicyclo[2.2.1]heptan-7-amine] here?
Answer: 84 nM

Question: For `COc1cc(C(=O)N2C[C@H]3CC[C@@H]2[C@@H]3N)cc2nc(-c3cc4cccnc4n3CC3CC3)n(CC3CN(c4ccnc(C#N)c4)C3)c12` [Example 31, 4-[3-({5-[(1R,4R,7R)-7-amino-2-azabicyclo[2.2.1]heptane-2-carbonyl]-2-[1-(cyclopropylmethyl)-1H-pyrrolo[2,3-b]pyridin-2-yl]-7-methoxy-1H-1,3-benzodiazol-1-yl}methyl)azetidin-1-yl]pyridine-2-carbonitrile], which IC50 is on record?
Answer: 85 nM

Question: With `COc1cc(C(=O)N2C[C@H]3CC[C@@H]2[C@@H]3N)cc2nc(-c3cc4cccnc4n3CC3CC3)n(CC3CN(c4ncc(Br)cn4)C3)c12` [Example 32, (1R,4R,7R)-2-(1-{[1-(5-bromopyrimidin-2-yl)azetidin-3-yl]methyl}-2-[1-(cyclopropylmethyl)-1H-pyrrolo[2,3-b]pyridin-2-yl]-7-methoxy-1H-1,3-benzodiazole-5-carbonyl)-2-azabicyclo[2.2.1]heptan-7-amine] as the molecule, how does the IC50 read?
Answer: 86 nM

Question: With `COc1cnc(N2CC(Cn3c(-c4cc5cccnc5n4CC4CC4)nc4cc(C(=O)N5C[C@H]6CC[C@@H]5[C@@H]6N)cc(OC)c43)C2)cn1` [Example 33, (1R,4R,7R)-2-{2-[1-(cyclopropylmethyl)-1H-pyrrolo[2,3-b]pyridin-2-yl]-7-methoxy-1-{[1-(5-methoxypyrazin-2-yl)azetidin-3-yl]methyl}-1H-1,3-benzodiazole-5-carbonyl}-2-azabicyclo[2.2.1]heptan-7-amine] as the molecule, how does the IC50 read?
Answer: 87 nM

Question: How did the IC50 turn out when `COc1cc(C(=O)N2C[C@H](N)C[C@@H](F)C2)cc2nc(-c3cc4ccccc4n3CC3CC3)n(CC3CN(c4cncc(C#N)c4)C3)c12` [Example 34, 5-[3-({5-[(3R,5R)-3-amino-5-fluoropiperidine-1-carbonyl]-2-[1-(cyclopropylmethyl)-1H-indol-2-yl]-7-methoxy-1H-1,3-benzodiazol-1-yl}methyl)azetidin-1-yl]pyridine-3-carbonitrile] was run?
Answer: 88 nM

Question: Which IC50 does the source give for `COc1ccc2cc(-c3nc4cc(C(=O)N5C[C@H]6CC[C@@H]5[C@@H]6N)cc(OC)c4n3CC3CN(c4cccnc4C#N)C3)n(CC3CC3)c2n1` [Example 35, 3-[3-({5-[(1R,4R,7R)-7-amino-2-azabicyclo[2.2.1]heptane-2-carbonyl]-2-[1-(cyclopropylmethyl)-6-methoxy-1H-pyrrolo[2,3-b]pyridin-2-yl]-7-methoxy-1H-1,3-benzodiazol-1-yl}methyl)azetidin-1-yl]pyridine-2-carbonitrile] here?
Answer: 90 nM
